Assay results: patent EP2933270B1, “ARTEANNUIN CYCLODEXTRIN CONJUGATE AND PREPARING METHOD THEREOF” (KPC Pharmaceuticals, Inc., priority 2012, dated 2014)
Like-named read-outs stand apart in the source and are kept apart here.

Experiments:
Lovo = assay: MTT assay, growth inhibition of human rectal cancer cells; format: cell-based; conditions: 48 h
Description: (§1) For example, 180 µl suspension of human rectal cancer cells HCT116, Lovo, SW480 and HT29 at a concentration of 4×10^4/mL is added to 96-well culture plate, and pre-cultured under the conditions of 5% CO2, 37°C and saturated moisture for 24h. After 150 µl medium is replaced, 20 µl medium containing molecular assembly at different concentrations is added, and cultured for another 48 h, with the medium free of a sample as a negative control, and a medium containing camptothecin, oxaliplatin and fluorouracil at different concentrations as a positive control. MTT assay is used to determine the OD value, and to calculate the growth inhibition rate. The inhibition of compounds at high, medium and low concentrations on the tumor cell proliferation is observed. All the experiments above are performed in triplet. Results for in vitro experiment of the arteannuin-cyclodextrin conjugate with respect to human rectum and caecum cancer cells are shown in table 1. Table 1 IC50 value (µM) for certain arteannuin compounds in several rectum cancer cells

HT29 = assay: as above; format: cell-based; conditions: 48 h
Description: as §1

HCT116 = assay: as above; format: cell-based
Description: as §1

SW480 = assay: as above; format: cell-based; conditions: 48 h
Description: as §1

Solubility in water = assay: Solubility in water
Source text: The arteannuin-cyclodextrin conjugate according to the present invention uses a cyclodextrin as a carrier, and a molecule of an arteannuin compound is connected, via an amide bond formed between the carboxyl group thereof and any amine group of the cyclodextrin modified by an amine group, to the cyclodextrin.

Hep2 hepatoma = conditions: mice, intraperitoneal injection, 60 mg/kg; cited from earlier work
hepatocarcinoma H22 = conditions: mice, 300 mg/kg by gavage; cited from earlier work
[1] = Homo sapiens, HT-29, HT 90 [sic] cells (method: HT29)
[2] = isolated product of the example
[3] = HT 90 [sic] cells (method: HT29)

For C[C@H]1[C@@H](O)O[C@@H]2O[C@@]3(C)CC[C@H]4[C@H](C)CC[C@@H]1[C@@]24OO3 [dihydroarteannuin], which IC50 (Lovo; Homo sapiens) is on record?
The IC50 was 2.11 µM.

What about the IC50 (HT29; [1]) of the same compound?
The IC50 was 21.1 µM.

And the IC50 (HCT116; Homo sapiens, HCT-116, 48 h)?
The IC50 was 1.76 µM.

And the IC50 (SW480; Homo sapiens)?
Its IC50 is 14.1 µM.

What about the “solubility in water” value (Solubility in water) of the same compound?
The value was “almost insoluble in water”.

What does the source list for C[C@H]1[C@H](OC(=O)CCC(=O)O)O[C@@H]2O[C@@]3(C)CC[C@H]4[C@H](C)CC[C@@H]1[C@@]24OO3 [artesunate]?
IC50 (Lovo; Homo sapiens): 2.6 µM; IC50 (HT29; [1]): 9.11 µM; IC50 (HCT116; Homo sapiens, HCT-116, 48 h): 1.04 µM; IC50 (SW480; Homo sapiens): 1.82 µM; anti-tumor rate (Hep2 hepatoma): 80.4%; anti-tumor rate (hepatocarcinoma H22): ≥ 40%; solubility in water (Solubility in water; in water): almost insoluble in water

With “conjugate of mono-[6-(monoamine)-6-deoxy]-β-cyclodextrin and the compound in which C-12 of the arteannuin was connected with a phenoxy group [Example 6]” as the compound, how does the solubility (Solubility in water; [2]) read?
Its solubility is 54 mg/mL.

Which results are given for O=c1[nH]cc(F)c(=O)[nH]1 [fluorouracil]?
IC50 (Lovo; Homo sapiens): 23 µM; IC50 (HT29; [1]): 38.5 µM; IC50 (HCT116; Homo sapiens, HCT-116, 48 h): 5.4 µM; IC50 (SW480; Homo sapiens): 30.8 µM

For O=C1[O][Pt]2([NH][C@@H]3CCCC[C@H]3[NH]2)[O]C1=O [oxaliplatin], which IC50 (Lovo) is on record?
The IC50 was 1.51 µM.

And the IC50 (HT29; [3])?
The IC50 was 9.7 µM.

And the IC50 (HCT116; 48 h)?
The IC50 was 0.76 µM.

What about the IC50 (SW480) of the same compound?
The IC50 was 30.1 µM.

Which “solubility in water” value (Solubility in water; in water) does the source give for C[C@@H]1CC[C@H]2[C@@H](C)C(=O)O[C@@H]3O[C@@]4(C)CC[C@@H]1[C@]32OO4 [arteannuin] here?
The value was “almost insoluble in water”.

Which solubility (Solubility in water) does the source give for “conjugate of mono-[6-(ethanediamine)-6-deoxy]-β-cyclodextrin and the compound in which C-12 of the arteannuin was connected with a phenoxy group [Example 5]” here?
Its solubility is 68 mg/mL.

For “mono-[6-(ethanediamine)-6-deoxy]-β-cyclodextrin-artesunate conjugate [Example 1]”, which IC50 (Lovo) is on record?
Its IC50 is 1.62 µM.

And the IC50 (HT29; [3])?
The IC50 was 5.18 µM.

And the IC50 (HCT116; 48 h)?
Its IC50 is 0.58 µM.

And the IC50 (SW480)?
Its IC50 is 3.89 µM.

What about the solubility (Solubility in water; [2]) of the same compound?
The solubility was 68 mg/mL.
